Measured values from ChEMBL document CHEMBL3046800, “Tricyclic cyanoguanidines: synthesis, site of action and insecticidal activity of a novel class of reversible acetylcholinesterase inhibitors” (2002).
Activity calls are given as the source filed them. The calls are words filed in the database; no cut-off is given here.

Columns and labels:
Peregrinus maidis = assay: Insecticidal activity against Peregrinus maidis (corn hopper) infested compound-pretreated corn seed measured 6 days post-infestation; format: functional
Nephotettix cincticeps = assay: Insecticidal activity against Nephotettix cincticeps (green rice leafhopper) infested in compound-pretreated rice seedling measured 6 days post-infestation; format: functional
Nilaparvata lugens = assay: Insecticidal activity against Nilaparvata lugens (brown planthopper) infested in compound-pretreated rice seedling measured 6 days post-infestation; format: functional
[1] = target: Acetylcholinesterase (Leptinotarsa decemlineata) (UniProt Q27677); assay: Reversible inhibition of Diabrotica undecimpunctata (Southern corn rootworm) acetylcholinesterase using acetylcholine iodine as substrate at 10 uM incubated for 30 min prior to substrate addition by size exclusion chromatrography method
[2] = target: Ace-orthologous acetylcholinesterase (Nephotettix cincticeps) (UniProt Q9NJH6); assay: Reversible inhibition of Nephotettix cincticeps (green rice leafhopper) acetylcholinesterase using acetylcholine iodine as substrate at 2 uM measured up to 120 min by DTNB-based colorimetric analysis
[3] = target: Acetylcholinesterase (Leptinotarsa decemlineata) (UniProt Q27677); assay: Reversible inhibition of Diabrotica undecimpunctata (Southern corn rootworm) acetylcholinesterase using acetylcholine iodine as substrate at 2 uM measured up to 120 min by DTNB-based colorimetric analysis
[4] = target: Acetylcholinesterase (Leptinotarsa decemlineata) (UniProt Q27677); assay: Irreversible inhibition of Diabrotica undecimpunctata (Southern corn rootworm) acetylcholinesterase using acetylcholine iodine as substrate assessed as activity remaining at 1 uM incubated for 30 min prior to substrate addition by size exclusion chromatrography method
[5] = target: Acetylcholinesterase (Leptinotarsa decemlineata) (UniProt Q27677); assay: Irreversible inhibition of Diabrotica undecimpunctata (Southern corn rootworm) acetylcholinesterase using acetylcholine iodine as substrate at 300 nM measured after 120 min by DTNB-based colorimetric analysis
[6] = target: Acetylcholinesterase (Leptinotarsa decemlineata) (UniProt Q27677); assay: Inhibition of Diabrotica undecimpunctata (Southern corn rootworm) acetylcholinesterase using acetylcholine iodine as substrate at 300 nM measured after 30 min by DTNB-based colorimetric analysis

Chain of Acetylcholinesterase (Leptinotarsa decemlineata) (Q27677 whole entry): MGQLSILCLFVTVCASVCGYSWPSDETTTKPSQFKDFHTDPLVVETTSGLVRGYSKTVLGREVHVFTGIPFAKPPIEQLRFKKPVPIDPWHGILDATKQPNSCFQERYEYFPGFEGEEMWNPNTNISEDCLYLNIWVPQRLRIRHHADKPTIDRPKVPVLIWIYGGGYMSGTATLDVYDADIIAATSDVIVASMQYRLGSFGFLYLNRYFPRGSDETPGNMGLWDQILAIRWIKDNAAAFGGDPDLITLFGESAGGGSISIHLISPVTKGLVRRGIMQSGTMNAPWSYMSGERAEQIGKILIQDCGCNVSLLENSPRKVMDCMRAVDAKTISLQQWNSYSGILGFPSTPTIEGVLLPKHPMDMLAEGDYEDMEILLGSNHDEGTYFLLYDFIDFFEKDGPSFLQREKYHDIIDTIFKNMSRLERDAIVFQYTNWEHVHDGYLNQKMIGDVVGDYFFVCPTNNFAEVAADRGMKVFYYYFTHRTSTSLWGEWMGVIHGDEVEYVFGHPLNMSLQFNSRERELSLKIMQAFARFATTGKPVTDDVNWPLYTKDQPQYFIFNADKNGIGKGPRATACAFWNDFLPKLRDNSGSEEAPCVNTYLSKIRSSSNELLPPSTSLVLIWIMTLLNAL
Chain of Ace-orthologous acetylcholinesterase (Nephotettix cincticeps) (Q9NJH6 20-677 limits assumed): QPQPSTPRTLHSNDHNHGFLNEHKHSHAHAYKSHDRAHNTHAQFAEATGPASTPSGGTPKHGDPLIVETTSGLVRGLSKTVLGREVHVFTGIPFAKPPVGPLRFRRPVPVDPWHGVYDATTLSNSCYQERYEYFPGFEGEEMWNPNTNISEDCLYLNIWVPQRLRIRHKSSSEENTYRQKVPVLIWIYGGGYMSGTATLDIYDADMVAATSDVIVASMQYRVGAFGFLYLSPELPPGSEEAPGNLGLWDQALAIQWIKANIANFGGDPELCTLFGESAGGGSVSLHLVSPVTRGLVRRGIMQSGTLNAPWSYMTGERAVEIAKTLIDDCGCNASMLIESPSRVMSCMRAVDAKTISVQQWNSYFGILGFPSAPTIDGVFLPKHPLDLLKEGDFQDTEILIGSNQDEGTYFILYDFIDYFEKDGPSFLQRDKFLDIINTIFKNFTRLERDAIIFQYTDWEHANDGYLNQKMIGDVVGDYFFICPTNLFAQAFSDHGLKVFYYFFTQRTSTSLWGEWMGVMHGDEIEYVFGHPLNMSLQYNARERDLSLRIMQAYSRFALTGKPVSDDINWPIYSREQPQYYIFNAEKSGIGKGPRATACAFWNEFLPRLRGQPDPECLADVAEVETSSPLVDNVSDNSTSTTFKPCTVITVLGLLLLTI

N#C/N=C1\NC2Cc3ccccc3C(C2)N1 (centres undefined)
LC80 (Peregrinus maidis): <2.5 ppm | LC80 (Nephotettix cincticeps): <10 ppm | LC80 (Nilaparvata lugens): <100 ppm

COc1cccc2c1C1CC(C)(N/C(=N\C#N)N1)O2 (centres undefined)
LC80 (Peregrinus maidis): <50 ppm | LC80 (Nephotettix cincticeps): >100 ppm | LC80 (Nilaparvata lugens): >100 ppm

CC12CC(c3ccccc3O1)N(C[Si](C)(C)C)/C(=N/C#N)N2 (centres undefined)
LC80 (Peregrinus maidis): >250 ppm | LC80 (Nephotettix cincticeps): >100 ppm | LC80 (Nilaparvata lugens): <100 ppm

CC12CC(N/C(=N/C#N)N1)c1cc(OC(F)(F)F)ccc1O2 (centres undefined)
LC80 (Peregrinus maidis): >250 ppm | LC80 (Nephotettix cincticeps): >100 ppm | LC80 (Nilaparvata lugens): >100 ppm

C[C@@H]1[C@H]2N/C(=N/C#N)N[C@]1(C)Oc1ccccc12 (relative stereo)
LC80 (Peregrinus maidis): <50 ppm | LC80 (Nephotettix cincticeps): >100 ppm | LC80 (Nilaparvata lugens): <1 ppm

CCC12CC(N/C(=N/C#N)N1)c1ccccc1O2 (centres undefined)
LC80 (Peregrinus maidis): >250 ppm | LC80 (Nephotettix cincticeps): >100 ppm | LC80 (Nilaparvata lugens): <10 ppm

CC1c2ccccc2C2CC1N/C(=N\C#N)N2 (centres undefined)
LC80 (Peregrinus maidis): <2.5 ppm | LC80 (Nephotettix cincticeps): <10 ppm

CC12CC(N/C(=N/C#N)N1)c1cc(C(C)(C)C)cc(C(C)(C)C)c1O2 (centres undefined)
LC80 (Peregrinus maidis): >250 ppm | LC80 (Nephotettix cincticeps): >100 ppm | LC80 (Nilaparvata lugens): >100 ppm

CN1/C(=N/C#N)NC2(C)CC1c1ccccc1O2 (centres undefined)
LC80 (Peregrinus maidis): >250 ppm | LC80 (Nephotettix cincticeps): <100 ppm | LC80 (Nilaparvata lugens): <10 ppm

C=CCN1/C(=N/C#N)NC2(C)CC1c1ccccc1O2 (centres undefined)
LC80 (Peregrinus maidis): >250 ppm | LC80 (Nephotettix cincticeps): >100 ppm | LC80 (Nilaparvata lugens): <100 ppm

CC12CC(N/C(=N/C#N)N1)c1cc(Cl)ccc1O2 (centres undefined)
LC80 (Peregrinus maidis): >250 ppm | LC80 (Nephotettix cincticeps): >100 ppm | LC80 (Nilaparvata lugens): >100 ppm

CC12CC(N/C(=N/C#N)N1)c1cc(N)ccc1O2 (centres undefined)
LC80 (Peregrinus maidis): >250 ppm | LC80 (Nephotettix cincticeps): <10 ppm | LC80 (Nilaparvata lugens): >100 ppm

CCCC(=O)N1/C(=N/C#N)NC2(C)CC1c1ccccc1O2 (centres undefined)
LC80 (Peregrinus maidis): >250 ppm | LC80 (Nephotettix cincticeps): <100 ppm | LC80 (Nilaparvata lugens): <10 ppm

CN1/C(=N/C#N)NC2(C)CC1c1ccc(F)cc1O2 (centres undefined)
LC80 (Peregrinus maidis): <10 ppm

CC(=O)N1/C(=N/C#N)NC2(C)CC1c1ccccc1O2 (centres undefined)
LC80 (Peregrinus maidis): <250 ppm | LC80 (Nephotettix cincticeps): <10 ppm | LC80 (Nilaparvata lugens): <10 ppm

CC12CC(N/C(=N/C#N)N1)c1ccc(F)cc1O2 (centres undefined)
LC80 (Peregrinus maidis): <250 ppm | LC80 (Nephotettix cincticeps): >100 ppm | LC80 (Nilaparvata lugens): <10 ppm

CC(=O)N1/C(=N/C#N)NC2Cc3ccccc3C1C2 (centres undefined)
LC80 (Peregrinus maidis): >250 ppm | LC80 (Nephotettix cincticeps): <10 ppm

CC12CC(N/C(=N/C#N)N1)c1cc([N+](=O)[O-])ccc1O2 (centres undefined)
LC80 (Peregrinus maidis): <250 ppm | LC80 (Nephotettix cincticeps): <10 ppm | LC80 (Nilaparvata lugens): >100 ppm

CC12CC(c3ccccc3O1)N(S(C)(=O)=O)/C(=N/C#N)N2 (centres undefined)
LC80 (Peregrinus maidis): <50 ppm | LC80 (Nephotettix cincticeps): >100 ppm | LC80 (Nilaparvata lugens): >100 ppm

N#C/N=C1/NC2CC(c3ccccc3)(N1)Oc1ccccc12 (centres undefined)
LC80 (Peregrinus maidis): <50 ppm | LC80 (Nephotettix cincticeps): <10 ppm | LC80 (Nilaparvata lugens): >100 ppm

C[C@@H]1[C@H]2Cc3ccccc3[C@@H]1N/C(=N/C#N)N2 (relative stereo)
LC80 (Peregrinus maidis): <250 ppm | LC80 (Nephotettix cincticeps): <0.1 ppm | LC80 (Nilaparvata lugens): <100 ppm

Cc1cccc2c1OC1(C)CC2N/C(=N/C#N)N1 (centres undefined)
LC80 (Peregrinus maidis): >250 ppm | LC80 (Nephotettix cincticeps): >100 ppm | LC80 (Nilaparvata lugens): >100 ppm

CC(=O)N1/C(=N\C#N)NC2CC1Cc1ccccc12 (centres undefined)
LC80 (Peregrinus maidis): <10 ppm | LC80 (Nilaparvata lugens): >100 ppm

C[C@H]1[C@H]2Cc3ccccc3[C@@H]1N/C(=N/C#N)N2 (relative stereo)
LC80 (Peregrinus maidis): <250 ppm | LC80 (Nilaparvata lugens): <10 ppm

CC12CC(N/C(=N/C#N)N1)c1ccccc1O2 (centres undefined)
inhibition [1]: Active | inhibition [2]: inactive | inhibition [3]: 50% | LC80 (Peregrinus maidis): >250 ppm | LC80 (Nephotettix cincticeps): >100 ppm | LC80 (Nilaparvata lugens): <10 ppm

COC(=O)N1/C(=N/C#N)NC2(C)CC1c1ccccc1O2 (centres undefined)
LC80 (Peregrinus maidis): >250 ppm | LC80 (Nephotettix cincticeps): <10 ppm | LC80 (Nilaparvata lugens): <10 ppm

C#CCN1/C(=N/C#N)NC2(C)CC1c1ccccc1O2 (centres undefined)
LC80 (Peregrinus maidis): >250 ppm | LC80 (Nephotettix cincticeps): <10 ppm | LC80 (Nilaparvata lugens): <10 ppm

C[C@H]1[C@H]2N/C(=N/C#N)N[C@]1(C)Oc1ccccc12 (relative stereo)
LC80 (Peregrinus maidis): >250 ppm | LC80 (Nephotettix cincticeps): <1 ppm | LC80 (Nilaparvata lugens): <100 ppm

COC(=O)N1/C(=N/C#N)NC2(C)CC1c1ccc(F)cc1O2 (centres undefined)
LC80 (Peregrinus maidis): <250 ppm | LC80 (Nephotettix cincticeps): <10 ppm

CC12CC(N/C(=N/C#N)N1)c1cc(Br)cc(Br)c1O2 (centres undefined)
LC80 (Peregrinus maidis): <10 ppm | LC80 (Nephotettix cincticeps): >100 ppm | LC80 (Nilaparvata lugens): >100 ppm

COC(=O)CN1/C(=N/C#N)NC2(C)CC1c1ccccc1O2 (centres undefined)
LC80 (Peregrinus maidis): <50 ppm | LC80 (Nephotettix cincticeps): <100 ppm | LC80 (Nilaparvata lugens): <100 ppm

CC12CC(c3ccccc3O1)N(C(=O)C(F)(F)F)/C(=N/C#N)N2 (centres undefined)
LC80 (Peregrinus maidis): <250 ppm | LC80 (Nephotettix cincticeps): >100 ppm | LC80 (Nilaparvata lugens): >100 ppm

CC(=O)N1/C(=N/C#N)NC2(C)CC1c1ccc(F)cc1O2 (centres undefined)
LC80 (Peregrinus maidis): >250 ppm | LC80 (Nephotettix cincticeps): >100 ppm | LC80 (Nilaparvata lugens): >100 ppm

CCC1C2N/C(=N\C#N)NC1c1ccccc1O2 (mixture of isomers)
LC80 (Peregrinus maidis): <250 ppm | LC80 (Nilaparvata lugens): >100 ppm

CCOP(=O)(OCC)Oc1ccc([N+](=O)[O-])cc1 [PARAOXON]
Activity [4]: < 20% | inhibition [5]: 100% | inhibition [6]: 50% | LC80 (Nephotettix cincticeps): >100 ppm | LC80 (Nilaparvata lugens): <10 ppm

CC1C2N/C(=N\C#N)NC1c1ccccc1O2 (mixture of isomers)
LC80 (Peregrinus maidis): >250 ppm | LC80 (Nephotettix cincticeps): >100 ppm | LC80 (Nilaparvata lugens): <100 ppm

COc1ccc2c(c1OC)OC1(C)CC2N/C(=N/C#N)N1 (centres undefined)
LC80 (Peregrinus maidis): <250 ppm | LC80 (Nephotettix cincticeps): >100 ppm | LC80 (Nilaparvata lugens): >100 ppm

CC12CC(N/C(=N/C#N)N1)c1ccc(Cl)cc1O2 (centres undefined)
LC80 (Peregrinus maidis): <50 ppm | LC80 (Nephotettix cincticeps): >100 ppm | LC80 (Nilaparvata lugens): <100 ppm

CCC12N/C(=N\C#N)NC(c3ccccc3O1)C2C (mixture of isomers)
LC80 (Peregrinus maidis): >250 ppm | LC80 (Nephotettix cincticeps): >100 ppm | LC80 (Nilaparvata lugens): >100 ppm

CCN1/C(=N/C#N)NC2(C)CC1c1ccccc1O2 (centres undefined)
LC80 (Peregrinus maidis): >250 ppm | LC80 (Nephotettix cincticeps): >100 ppm | LC80 (Nilaparvata lugens): <10 ppm

N#C/N=C1\NC2CC(N1)c1ccccc1O2 (centres undefined)
LC80 (Peregrinus maidis): <50 ppm | LC80 (Nephotettix cincticeps): >100 ppm | LC80 (Nilaparvata lugens): <100 ppm

CCC1C2N/C(=N/C#N)NC1(C)Oc1ccccc12 (centres undefined)
LC80 (Peregrinus maidis): >250 ppm | LC80 (Nephotettix cincticeps): <10 ppm | LC80 (Nilaparvata lugens): >100 ppm

C[C@H]1[C@H]2N/C(=N/C#N)N[C@]1(C)Cc1ccccc12 (relative stereo)
LC80 (Peregrinus maidis): <2.5 ppm | LC80 (Nephotettix cincticeps): <1 ppm

CN1/C(=N/C#N)N(C)C2(C)CC1c1ccccc1O2 (centres undefined)
LC80 (Peregrinus maidis): >250 ppm | LC80 (Nephotettix cincticeps): >100 ppm | LC80 (Nilaparvata lugens): <10 ppm

CC12CC(N/C(=N/C#N)N1)c1cc(Cl)cc(Cl)c1O2 (centres undefined)
LC80 (Peregrinus maidis): >250 ppm | LC80 (Nephotettix cincticeps): >100 ppm | LC80 (Nilaparvata lugens): >100 ppm

CC12CC(c3ccccc3O1)N(Cc1ccccn1)/C(=N/C#N)N2 (centres undefined)
LC80 (Peregrinus maidis): <50 ppm | LC80 (Nephotettix cincticeps): >100 ppm | LC80 (Nilaparvata lugens): <100 ppm

CC12CC(N/C(=N/C#N)N1)c1cccc(F)c1O2 (centres undefined)
LC80 (Peregrinus maidis): >250 ppm | LC80 (Nephotettix cincticeps): >100 ppm | LC80 (Nilaparvata lugens): >100 ppm

CC12CC(c3ccccc3O1)N(Cc1ccccc1)/C(=N/C#N)N2 (centres undefined)
LC80 (Peregrinus maidis): >250 ppm | LC80 (Nephotettix cincticeps): <100 ppm | LC80 (Nilaparvata lugens): >100 ppm

CCC(=O)N1/C(=N/C#N)NC2(C)CC1c1ccccc1O2 (centres undefined)
LC80 (Peregrinus maidis): <250 ppm | LC80 (Nephotettix cincticeps): <100 ppm | LC80 (Nilaparvata lugens): <10 ppm

C[C@@H]1[C@H]2N/C(=N/C#N)N[C@]1(C)Cc1ccccc12 (relative stereo)
LC80 (Peregrinus maidis): <10 ppm | LC80 (Nilaparvata lugens): <1 ppm

CC(C)C(=O)N1/C(=N/C#N)NC2(C)CC1c1ccccc1O2 (centres undefined)
LC80 (Peregrinus maidis): >250 ppm | LC80 (Nephotettix cincticeps): >100 ppm | LC80 (Nilaparvata lugens): <10 ppm

Cc1ccc2c(c1)C1CC(C)(N/C(=N\C#N)N1)O2 (centres undefined)
LC80 (Peregrinus maidis): >250 ppm | LC80 (Nephotettix cincticeps): <100 ppm | LC80 (Nilaparvata lugens): >100 ppm

CC12CC(N/C(=N/C#N)N1)c1c(Cl)cc(Cl)cc1O2 (centres undefined)
LC80 (Peregrinus maidis): <250 ppm | LC80 (Nephotettix cincticeps): <10 ppm | LC80 (Nilaparvata lugens): >100 ppm
